From US11247981B2, “Metalloenzyme inhibitor compounds” (Mycovia Pharmaceuticals, Inc., priority 2012, dated 2022)
In brackets after ≈: the same amount, converted by molar mass.

System: C. albicans
Test: Minimum Inhibitory Concentration (MIC), CLSI M27-A2
Assay type: cell-based
Conditions: rating scale in μg/mL
Procedure: A. Minimum Inhibitory Concentration (MIC) Compounds were assessed for their ability to inhibit the growth of common strains of fungus, C. albicans using a standardized procedure (CLSI M27-A2). Stock solutions of the test compounds and standards were prepared in DMSO at 1,600 μg/mL (C. albicans). Eleven, serial, one-half dilutions of compounds were prepared in 96-well plates in RPMI+MOPS. The assay concentration ranges were 8-0.001 μg/mL (C. albicans). Cell suspensions of C. albicans were prepared and added to each well at concentrations of approximately 3.7×10^3 colony-forming-units per milliliter (cfu/mL). All testing was in duplicate. The inoculated plates were incubated for approximately 48 h at 35±1° C. At the completion of incubation the wells of each plate were evaluated visually for the presence of fungal growth. […] For QC purposes C. krusei isolate ATCC 6258 (4.0×10^3 cfu/mL) was included in the VOR assay.

SMILES | Candida MIC Rating | MIC (Candida albicans) [µg/mL]
OC(Cn1cnnn1)(c1ccc(F)cc1F)C(F)(F)c1ccc(-c2ccc(OCC(F)(F)F)cc2)cn1 (centres unmarked) [Example 11, 2-(2,4-Difluorophenyl)-1,1-difluoro-3-(1H-tetrazol-1-yl)-1-(5-(4-(2,2,2-trifluoroethoxy)phenyl)pyridin-2-yl)propan-2-ol] | A (≤0.5) | 
OC(Cn1cnnn1)(c1ccc(F)cc1F)C(F)(F)c1ccc(-c2ccc(OCC(F)(F)F)cc2)cn1 (centres unmarked) [Example 39, 2-(2,4-Difluorophenyl)-1,1-difluoro-3-(1H-tetrazol-1-yl)-1-(5-(4-(2,2,2-trifluoroethoxy)phenyl)pyridin-2-yl)propan-2-ol] | C (>1.5 − 4) | 
CC(F)(c1ccc(-c2ccc(OC(F)(F)F)cc2)cn1)C(O)(Cn1cnnn1)c1ccc(F)cc1F (centres unmarked) [Example 47, 2-(2,4-Difluorophenyl)-3-fluoro-1-(1H-tetrazol-1-yl)-3-(5-(4-(trifluoromethoxy)phenyl)-pyridin-2-yl)butan-2-ol] | A (≤0.5) | 
CC(F)(c1ccc(-c2ccc(F)cc2)cn1)C(O)(Cn1cnnn1)c1ccc(F)cc1F (centres unmarked) [Example 50, 2-(2,4-Difluorophenyl)-3-fluoro-3-(5-(4-fluorophenyl)pyridin-2-yl)-1-(1H-tetrazol-1-yl)butan-2-ol] |  | 1.5 to 4 (≈ 3.38 to 9.02 µM)
CC(F)(c1ccc(-c2ccc(F)cc2)cn1)C(O)(Cn1cnnn1)c1ccc(F)cc1F (centres unmarked) [Example 51, 2-(2,4-Difluorophenyl)-3-fluoro-3-(5-(4-fluorophenyl)pyridin-2-yl)-1-(1H-tetrazol-1-yl)butan-2-ol] | A (≤0.5) | 
CC(F)(c1ccc(-c2ccc(C(F)(F)F)cc2)cn1)C(O)(Cn1cnnn1)c1ccc(F)cc1F (centres unmarked) [Example 52] | C (>1.5 − 4) | 
CC(F)(c1ccc(-c2ccc(C(F)(F)F)cc2)cn1)C(O)(Cn1cnnn1)c1ccc(F)cc1F (centres unmarked) [Example 53] | B (>0.5 − 1.5) | 
CC(F)(c1ccc(-c2ccc(Cl)cc2)cn1)C(O)(Cn1cnnn1)c1ccc(F)cc1F (centres unmarked) [Example 54, 3-(5-(4-Chlorophenyl)pyridin-2-yl)-2-(2,4-difluorophenyl)-3-fluoro-1-(1H-tetrazol-1-yl)butan-2-ol] | C (>1.5 − 4) | 
CC(F)(c1ccc(-c2ccc(Cl)cc2)cn1)C(O)(Cn1cnnn1)c1ccc(F)cc1F (centres unmarked) [Example 55, 3-(5-(4-Chlorophenyl)pyridin-2-yl)-2-(2,4-difluorophenyl)-3-fluoro-1-(1H-tetrazol-1-yl)butan-2-ol] | A (≤0.5) | 
CC(F)(c1ccc(-c2ccc(OCC(F)(F)F)cc2)cn1)C(O)(Cn1cnnn1)c1ccc(F)cc1F (centres unmarked) [Example 56, 2-(2,4-Difluorophenyl)-3-fluoro-1-(1H-tetrazol-1-yl)-3-(5-(4-(2,2,2-trifluoroethoxy)phenyl)pyridin-2-yl)butan-2-ol] | C (>1.5 − 4) | 
CC(F)(c1ccc(-c2ccc(OCC(F)(F)F)cc2)cn1)C(O)(Cn1cnnn1)c1ccc(F)cc1F (centres unmarked) [Example 57, 2-(2,4-Difluorophenyl)-3-fluoro-1-(1H-tetrazol-1-yl)-3-(5-(4-(2,2,2-trifluoroethoxy)phenyl)pyridin-2-yl)butan-2-ol] | A (≤0.5) | 
